Laboratory results as given in US10695406B2, “Modulation of cellular stress using a B-cell oxidative and/or endoplasmic reticulum stress inhibitor and a targeting agent” (THE UNIVERSITY OF QUEENSLAND, priority 2014, dated 2020).

Legend:
[1] = tested on: Murine MIN6N8 cells; experiment: ERAI-sXBP1 reporter ER stress in MIN6N8 cells with 0.5 mM palmitate; format: cell-based; details: 15.4 nM, 24 hours, no palmitate
Procedure: Cell culture: Murine MIN6N8 cells were tested negative for mycoplasma. Cells were routinely cultured in phenol-red free DMEM (Life Technologies) containing 25 mM glucose (3.4 g/L sodium bicarbonate, 50 U/mL penicillin and streptomycin, 71.5 μM β-mercaptoethanol and 10% heat inactivated fetal bovine serum) and transferred to DMEM as above with 5.5 mM glucose 48 h prior to experimentation. Human LS174T cells were cultured in DMEM containing 10% heat-inactivated fetal bovine serum, 50 U mL^−1 penicillin and streptomycin.
ER Stress Measurement: MIN6N8 cells were transfected with the ERAI reporter plasmid (F-XBP1ΔDBD-venus, using Lipofectamine 2000 according to the manufacturer's instructions. For ERAI there was negligible fluorescence in the absence of ER stressors, but upon induction of ER stress, splicing of XBP1 mRNA by IRE1a results in the translation of Venus but not an active form of XBP1. Fluorescence was measured (excitation: 485 nm; emission: 520 nm) using a POLARstar Omega plate reader and cells were treated 48 h after transfection. […] After 24 h, ERAI-sXBP1 GFP reporter fluorescence was measured.

[2] = tested on: human pancreatic islets; experiment: Oxidative stress (ROS, NO) in cultured human pancreatic islets; format: cell-based; details: 50 ng/mL, 30 min prior exposure, 2 hours culture
Procedure: Human islets were recovered from organ donors and placed into overnight culture in DMEM with 2.8 mM glucose and 10% FCS. Islets were then washed and transferred into serum free DMEM for 6 h prior to experiments to assess induction of oxidative stress. Islets were then cultured for 2-24 hours in the presence of 50 ng/mL of IFNγ, IL-1β, IL-23 or IL-24, or the free fatty acid palmitate at 0.5 mM, with or without exposure to 50 ng/mL IL-22 beginning 30 min prior to the introduction of the stress inducing cytokines or lipids. To test whether endogenous IL-22 affects human islet physiology the islets were treated for 2-24 hours with an anti-IL-22R1 (receptor) antibody at 10 μg/mL. ROS and nitrite were measured using the DCFDA and Greiss assays as described above for murine islets, and quantitative RT-PCR used to assess gene expression.

[3] = tested on: mice with high fat diet-induced obesity (HFDIO); experiment: HFDIO Experiment 1: high fat diet induced obesity, treated last 3 weeks of 16; format: in vivo, C57BL/6 male mice
From the text: All mice were housed in sterilized, filter-topped cages in a conventional clean facility. Six to eight week old C57BL/6 male mice were fed ad libitum on a high fat diet containing 46% of available energy as saturated fat, 34% carbohydrate, 20% protein (Speciality feeds, SF04-027). Or on normal chow containing less than 10% saturated fat (GOLDMIX, 126575). Cages of mice were randomly allocated to the experimental groups by random draw. Investigators were not blinded to treatment by there were no subjective assessments made.
Total insulin and proinsulin were measured in supernatant from islet cultures or in serum from mice using commercially obtained ELISA kits from MILLIPORE and MERCODIA, respectively. The molar insulin concentration was determined by subtracting the molar proinsulin concentration from molar total insulin, and then the serum proinsulin:insulin ratio was calculated.
From […] of the diet, mice were treated with 20 ng/g i.p. recombinant murine IL-22 twice weekly (R&D SYSTEMS), 3 μg/g anti-IL-23 weekly (ELI-LILLY), 0.1 mg/mouse anti-IL-24 weekly (PROTEIN TECH), or 0.5 mg/mouse irrelevant isotype control antibody, sacrificed and sampled.
Fasted i.p. glucose tolerance tests (2 g/kg glucose) and insulin tolerance tests (0.25 U/kg insulin; Humalog, Lilly) were performed at the times indicated in the Figure Legends.
Pancreatic tissue was fixed in 10% neutral buffered formalin and processed using standard histological techniques. Standard immunohistochemical and immunofluorescent staining methods were used to determine the presence of Grp78, insulin, glucagon, IL-22R1, proinsulin and ATF6-GFP.
The area in pixels/mm^2 was determined for Grp78 and insulin (immunofluorescence) and proinsulin (immunohistochemisty) in the core of β-cell rich area of 3-4 islets per mouse (n=6-10 mice) using IMAGEJ software version 1.45s. Live cell imagine in MIN6N8 cells was carries out at 37° C. in 5% CO2 in a chamber using an OLYMPUS XCELLENCE RT microscope.

[4] = tested on: 3T3 adipocytes; experiment: 6-NBDG glucose uptake by 3T3 adipocytes with insulin secreted by islets; format: cell-based; details: insulin secreted by islets from HFD mice treated with 100 ng/g
Procedure: 3T3 cells were differentiated into adipocytes as previously described, and all experiments were carried out on day 8 post differentiation. 1×10^4 cells were seeded in a black 96-well plate and cultured in serum free 2.8 mM glucose media prior to the addition of insulin. Cells were treated for 1 h with 2 ng/mL recombinant insulin or total insulin from islet secretions at 37° C. as described in figure legends. Subsequently, cells were incubated with 6-(N-(7-nitrobenx-2-oxa-1,3-diazol-4-yl)amino)-6-deoxyglucose (6-NBDG) (MOLECULAR PROBES) for 20 min before cells were washed with PBS and glucose uptake was determined using a POLARstar Omega plate reader.

[5] = HFDIO Experiment 1, 16 weeks on HFD
[6] = HFDIO Experiment 1, 16 weeks on NCD

Substance: IL-22: interleukin-22; recombinant murine IL-22 (R&D SYSTEMS) in the mouse experiments
- ER stress caused by the protein alone [1]: did not cause ER stress
- production of ROS and NO induced by IFN-γ, IL-1β, IL-23, IL-24 and palmitate [2]: protected human islets from the production of ROS and NO
- body weight during treatment ([3]; HFD): progressively lost weight during treatment without changing food consumption
- hepatic Hspa5 mRNA ([3]; HFD, after 3 weeks treatment): decreased substantially
- fasted serum proinsulin:insulin ratio ([3]; HFD, end of treatment): decreased the fasted serum proinsulin:insulin ratio
- reduction of serum proinsulin ([3]; HFD, fasted, end of treatment): 92%
- decrease of islet proinsulin ([3]; HFD, immunostaining): 64%
- reduction of Grp78 in the β-cell region of islets ([3]; HFD, immunostaining): 75%
- β-cell insulin stores ([3]; HFD, immunostaining): returned to levels in non-obese mice
- reduction of the increase in IPGTT area under the curve (AUC glucose) ([3]; HFD, two weeks of treatment): 82%
- Body weight (% original) [3, 5]: 129 ± 9 % original
- Fasting blood glucose [3, 5]: 8.8 ± 0.9 mmol/L
- Fasting serum insulin concentration [3, 5]: 1.1 ± 0.5 ng/mL
- Fasting serum proinsulin concentration [3, 5]: 9.5 ± 3.8 pmol/L
- Body weight (% original) [3, 6]: 118 ± 3 % original
- Fasting blood glucose [3, 6]: 8.9 ± 0.8 mmol/L
- Fasting serum insulin concentration [3, 6]: 0.5 ± 0.1 ng/mL
- Fasting serum proinsulin concentration [3, 6]: Not detectable
- reduction in adipocyte 6-NBDG uptake vs insulin from islets of normal chow fed mice [4]: 11%
